Measurements taken from patent publication US10815210B2, “Benzocyclobutane derivatives useful as dual SGLT1 / SGLT2 modulators” (Janssen Pharmaceutica NV, priority 2016, dated 2020).
One block for each compound: values may come before it.

Columns and labels:
[1] = biological target: T1, human SGLT2 (Homo sapiens, UniProt P31639); assay: SGLT2 assay: Na-dependent 14C-AMG uptake in CHO-K1 cells stably expressing human SGLT2; format: cell-based; settings: for IC50: 500 μM AMG, 2 hours at 37° C.
T1 construct: expressed in transfected cells; host or cells: CHO-K1
T1 sequence (P31639 1-672): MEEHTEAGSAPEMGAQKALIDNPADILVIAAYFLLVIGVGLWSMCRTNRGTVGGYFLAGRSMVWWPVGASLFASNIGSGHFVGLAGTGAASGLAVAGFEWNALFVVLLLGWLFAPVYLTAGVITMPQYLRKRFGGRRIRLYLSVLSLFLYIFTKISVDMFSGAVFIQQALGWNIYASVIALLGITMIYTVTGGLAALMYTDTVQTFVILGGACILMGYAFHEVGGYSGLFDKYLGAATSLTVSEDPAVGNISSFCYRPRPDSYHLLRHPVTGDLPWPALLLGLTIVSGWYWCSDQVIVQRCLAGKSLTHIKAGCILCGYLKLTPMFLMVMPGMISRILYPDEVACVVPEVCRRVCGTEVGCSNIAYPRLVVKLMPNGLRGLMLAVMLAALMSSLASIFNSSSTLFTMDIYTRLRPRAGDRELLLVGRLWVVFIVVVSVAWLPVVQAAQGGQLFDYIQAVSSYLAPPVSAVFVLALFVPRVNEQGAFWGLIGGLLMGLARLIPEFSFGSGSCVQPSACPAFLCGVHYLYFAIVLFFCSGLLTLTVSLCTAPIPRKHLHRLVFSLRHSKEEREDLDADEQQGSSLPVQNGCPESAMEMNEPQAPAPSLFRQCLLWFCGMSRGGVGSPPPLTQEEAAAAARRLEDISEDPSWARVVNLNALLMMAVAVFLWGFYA
Description: (§1) SGLT1 and SGLT2 were cloned in form of cDNA from human small intestine (Genbank M24847), and from human kidney (Genbank M95549), respectively. Subsequently, each full cDNA was subcloned into pcDNA with each construct's integrity verified through follow-on sequencing. To generate CHO-K1 cells that stably express human SGLT1 or human SGLT2, CHO-K1 cells were transfected using DMRIE-C reagent (Life Technologies, Gaithersburg, Md.). Transfected cells were then selected in the presence of 500 μg/ml of the Geneticin (G418 Cellgro Catalog No. 30234-CI)
(§2) Individual clones were then characterized using the following cell-based assay for sodium-dependent glucose transport:
(§3) Inhibition of SGLT1 and SGLT2 activity was assessed in CHO K1 cells stably expressing either human SGLT1 or SGLT2, using the SGLT specific glucose analog methyl-glucopyranoside (Sigma Catalog No. M-9376). Cells were plated (45,000 cells/well) in white wall 96-well plates (COSTAR, Cat#3903) for 24 hours in growth medium, then a final concentration of 10 mM Na-Butyrate (ALDRICH Cat#30341-0) was added. The cells were incubated for 24 hours. On the day of the assay, cells were rinsed and treated with test compounds (at concentrations of 0.001 μM to 10 μM) in assay buffer (50 mM HEPES, 20 mM Tris base, 5 mM KCl, 1 mM MgCl2, 1 mM CaCl2 and 137 mM NaCl, pH 7.4) for 10 minutes. Cells were then incubated with ^14C-a-methyl-d-glucopyranoside (AMG, Amersham Catalog No. CFB 76), using 0.07 μCi per well in 500 μM AMG final concentration. The cells were incubated for 2 hours at 37° C. with 5% CO2 and washed two times with ice-cold Phosphate Buffer Solution (Cellgro Catalog No. 21030-CV). The cells were then solubilized by adding 60 μl of MICROSCINT™20 and the Na-dependent ^14C-AMG uptake was quantified by measuring radioactivity. Plates were counted in a TopCount (Packard, Meriden, Conn.)

[2] = biological target: T2, human SGLT1 (Homo sapiens, UniProt P13866); assay: SGLT1 assay: Na-dependent 14C-AMG uptake in CHO-K1 cells stably expressing human SGLT1; format: cell-based; settings: for IC50: 500 μM AMG, 2 hours at 37° C.
T2 construct: expressed in transfected cells; host or cells: CHO-K1
T2 sequence (P13866 1-664): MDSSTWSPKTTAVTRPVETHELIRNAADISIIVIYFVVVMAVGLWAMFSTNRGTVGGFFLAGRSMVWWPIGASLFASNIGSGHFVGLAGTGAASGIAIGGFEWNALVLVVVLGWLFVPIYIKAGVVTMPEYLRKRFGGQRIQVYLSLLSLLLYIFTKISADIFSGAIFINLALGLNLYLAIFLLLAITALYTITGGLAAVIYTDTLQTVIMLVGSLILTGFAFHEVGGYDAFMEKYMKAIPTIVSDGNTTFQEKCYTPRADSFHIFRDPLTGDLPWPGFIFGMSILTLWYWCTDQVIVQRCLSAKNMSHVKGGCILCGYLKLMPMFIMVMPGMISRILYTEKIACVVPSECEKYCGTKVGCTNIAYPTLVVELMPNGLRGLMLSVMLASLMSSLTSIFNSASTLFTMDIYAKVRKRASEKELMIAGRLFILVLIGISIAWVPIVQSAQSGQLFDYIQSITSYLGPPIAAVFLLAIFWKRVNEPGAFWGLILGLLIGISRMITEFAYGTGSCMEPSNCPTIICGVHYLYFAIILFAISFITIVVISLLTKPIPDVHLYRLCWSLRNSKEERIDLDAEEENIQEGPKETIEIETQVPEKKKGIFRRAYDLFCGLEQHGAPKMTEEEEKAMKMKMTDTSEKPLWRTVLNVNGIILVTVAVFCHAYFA
Description: as §1, §2, §3

SMILES: Cc1ccc([C@@H]2O[C@H](CO)[C@@H](O)[C@H](O)[C@H]2O)cc1Cc1ccc2c(c1)CC2 [Compound 1, (2S,3R,4R,5S,6R)-2-(3-((1,2-dihydrocyclobutabenzen-4-yl)methyl)-4-methylphenyl)-6-(hydroxymethyl)-tetrahydro-2H-pyran-3,4,5-triol]
IC50 [1]: 1 nM
IC50 [2]: 33 nM

SMILES: OC[C@H]1O[C@@H](c2ccc(Cl)c(Cc3ccc4c(c3)CC4)c2)[C@H](O)[C@@H](O)[C@@H]1O [Compound 2, (2S,3R,4R,5S,6R)-2-(4-chloro-3-((1,2-dihydrocyclobutabenzen-4-yl)methyl)phenyl)-6-(hydroxymethyl)-tetrahydro-2H-pyran-3,4,5-triol]
IC50 [1]: 1 nM
IC50 [2]: 45 nM

SMILES: COc1ccc([C@@H]2O[C@H](CO)[C@@H](O)[C@H](O)[C@H]2O)cc1Cc1ccc2c(c1)CC2 [Compound 3, (2S,3R,4R,5S,6R)-2-(3-((1,2-dihydrocyclobutabenzen-4-yl)methyl)-4-methoxyphenyl)-6-(hydroxymethyl)-tetrahydro-2H-pyran-3,4,5-triol]
IC50 [1]: 3 nM
IC50 [2]: 39 nM

SMILES: OC[C@H]1O[C@@H](c2ccc(C3CC3)c(Cc3ccc4c(c3)CC4)c2)[C@H](O)[C@@H](O)[C@@H]1O [Compound 5, (2S,3R,4R,5S,6R)-2-(4-cyclopropyl-3-((1,2-dihydrocyclobutabenzen-4-yl)methyl)phenyl)-6-(hydroxymethyl)-tetrahydro-2H-pyran-3,4,5-triol]
IC50 [1]: 5 nM
IC50 [2]: 32 nM

SMILES: COc1cc(C)c(Cc2ccc3c(c2)CC3)cc1[C@@H]1O[C@H](CO)[C@@H](O)[C@H](O)[C@H]1O [Compound 7, (2S,3R,4R,5S,6R)-2-(5-((1,2-dihydrocyclobutabenzen-4-yl)methyl)-2-methoxy-4-methylphenyl)-6-(hydroxymethyl)-tetrahydro-2H-pyran-3,4,5-triol]
IC50 [1]: 1 nM
IC50 [2]: 48 nM

SMILES: COc1cc(OC)c([C@@H]2O[C@H](CO)[C@@H](O)[C@H](O)[C@H]2O)cc1Cc1ccc2c(c1)CC2 [Compound 11, (2S,3R,4R,5S,6R)-2-(5-((1,2-dihydrocyclobutabenzen-4-yl)methyl)-2,4-dimethoxyphenyl)-6-(hydroxymethyl)-tetrahydro-2H-pyran-3,4,5-triol]
IC50 [1]: 1 nM
IC50 [2]: 58 nM

SMILES: COc1cc(C2CC2)c(Cc2ccc3c(c2)CC3)cc1[C@@H]1O[C@H](CO)[C@@H](O)[C@H](O)[C@H]1O [Compound 15, (2S,3R,4R,5S,6R)-2-(5-(bicyclo[4.2.0]octa-1(6),2,4-trien-3-ylmethyl)-4-cyclopropyl-2-methoxyphenyl)-6-(hydroxymethyl)oxane-3,4,5-triol]
inhibition at 0.03 µM [1]: 31%
inhibition at 0.3 µM [2]: 67%

SMILES: N#Cc1ccc([C@@H]2O[C@H](CO)[C@@H](O)[C@H](O)[C@H]2O)cc1Cc1ccc2c(c1)CC2 [Compound 16, 2-((1,2-dihydrocyclobutabenzen-4-yl)methyl)-4-((2S,3R,4R,5S,6R)-3,4,5-trihydroxy-6-(hydroxymethyl)-tetrahydro-2H-pyran-2-yl)benzonitrile]
inhibition at 0.03 µM [1]: 43%
inhibition at 0.3 µM [2]: 0%

SMILES: COc1cc(C#N)c(Cc2ccc3c(c2)CC3)cc1[C@@H]1O[C@H](CO)[C@@H](O)[C@H](O)[C@H]1O [Compound 18, 2-((1,2-dihydrocyclobutabenzen-4-yl)methyl)-5-methoxy-4-((2S,3R,4R,5S,6R)-3,4,8-trihydroxy-6-(hydroxymethyl)-tetrahydro-2H-pyran-2-yl)benzonitrile]
inhibition at 0.03 µM [1]: 74%
inhibition at 0.3 µM [2]: 25%

More lines, now with the values ahead:

IC50 [1]: 3 nM
IC50 [2]: 18 nM
SMILES: CCc1ccc([C@@H]2O[C@H](CO)[C@@H](O)[C@H](O)[C@H]2O)cc1Cc1ccc2c(c1)CC2 [Compound 4, (2S,3R,4R,5S,6R)-2-(3-((1,2-dihydrocyclobutabenzen-4-yl)methyl)-4-ethylphenyl)-6-(hydroxymethyl)-tetrahydro-2H-pyran-3,4,5-triol]

IC50 [1]: 1 nM
IC50 [2]: 4 nM
SMILES: Cc1cc(O)c([C@@H]2O[C@H](CO)[C@@H](O)[C@H](O)[C@H]2O)cc1Cc1ccc2c(c1)CC2 [Compound 6, (2S,3R,4R,5S,6R)-2-(5-((1,2-dihydrocyclobutabenzen-4-yl)methyl)-2-hydroxy-4-methylphenyl)-6-(hydroxymethyl)-tetrahydro-2H-pyran-3,4,5-triol]

IC50 [1]: 1 nM
IC50 [2]: 53 nM
SMILES: COc1cc(Cl)c(Cc2ccc3c(c2)CC3)cc1[C@@H]1O[C@H](CO)[C@@H](O)[C@H](O)[C@H]1O [Compound 9]

IC50 [1]: 1 nM
IC50 [2]: 5 nM
SMILES: COc1cc(O)c([C@@H]2O[C@H](CO)[C@@H](O)[C@H](O)[C@H]2O)cc1Cc1ccc2c(c1)CC2 [Compound 10, (2S,3R,4R,5S,6R)-2-(5-((1,2-dihydrocyclobutabenzen-4-yl)methyl)-2-hydroxy-4-methoxyphenyl)-6-(hydroxymethyl)-tetrahydro-2H-pyran-3,4,5-triol]

IC50 [1]: 2 nM
IC50 [2]: 3 nM
SMILES: CCc1cc(O)c([C@@H]2O[C@H](CO)[C@@H](O)[C@H](O)[C@H]2O)cc1Cc1ccc2c(c1)CC2 [Compound 12]

IC50 [1]: 1 nM
IC50 [2]: 32 nM
SMILES: CCc1cc(OC)c([C@@H]2O[C@H](CO)[C@@H](O)[C@H](O)[C@H]2O)cc1Cc1ccc2c(c1)CC2 [Compound 13, (2S,3R,4R,5S,6R)-2-(5-((1,2-dihydrocyclobutabenzen-4-yl)methyl)-4-ethyl-2-methoxyphenyl)-6-(hydroxymethyl)-tetrahydro-2H-pyran-3,4,5-triol]

IC50 [1]: 6 nM
IC50 [2]: 3 nM
SMILES: OC[C@H]1O[C@@H](c2cc(Cc3ccc4c(c3)CC4)c(C3CC3)cc2O)[C@H](O)[C@@H](O)[C@@H]1O [Compound 14, (2S,3R,4R,5S,6R)-2-(5-(bicyclo[4.2.0]octa-1(6),2,4-trien-3-ylmethyl)-4-cyclopropyl-2-hydroxyphenyl)-6-(hydroxymethyl)oxane-3,4,5-triol]

IC50 [1]: 1 nM
IC50 [2]: 192 nM
SMILES: N#Cc1cc(O)c([C@@H]2O[C@H](CO)[C@@H](O)[C@H](O)[C@H]2O)cc1Cc1ccc2c(c1)CC2 [Compound 17, 2-((1,2-dihydrocyclobutabenzen-4-yl)methyl)-5-hydroxy-4-((2S,3R,4R,5S,6R)-3,4,5-trihydroxy-6-(hydroxymethyl)-tetrahydro-2H-pyran-2-yl)benzonitrile]

inhibition at 0.03 µM [1]: 38%
inhibition at 0.3 µM [2]: 62%
SMILES: OC[C@H]1O[C@@H](c2cc(Cc3ccc4c(c3)CC4)c(F)cc2O)[C@H](O)[C@@H](O)[C@@H]1O [Compound 19, (2S,3R,4R,5S,6R)-2-(5-(bicyclo[4.2.0]octa-1(6),2,4-trien-3-ylmethyl)-4-fluoro-2-hydroxyphenyl)-6-(hydroxymethyl)tetrahydro-2H-pyran-3,4,5-triol]
